Test results reported in the OPERA property sets (Mansouri et al. 2018).
Converted amounts (≈) assume the structure as drawn.

Work on `O=S(=O)(O)c1cc(O)c2cc(Nc3ccccc3)ccc2c1` yielded a solubility of 10.6 mM (≈ 3.33 mg/mL).

`CCCCOC(=O)C(C)OC(C)=O` (stereo not given) gave a solubility (25 °C) of 176 mM (≈ 33.2 mg/mL).

For `CCC1(C)OC(=O)NC1=O` (stereo not given), the solubility (25 °C) was 1050 mM (≈ 150 mg/mL).

Work on `NNC(N)=S` yielded a solubility (20 °C) of 110 mM (≈ 10 mg/mL).

In the case of `Cc1cc(O)c(Cc2ccccc2)c(C)c1Cl`, the solubility (25 °C) is reported as 0.05 mM (≈ 0.0123 mg/mL).

In the case of `CCCSS(=O)CCC` (stereo not given), the solubility is reported as 120 mM (≈ 20 mg/mL).

Work on `c1cn[nH]c1` yielded a solubility (25 °C) of 285 mM (≈ 19.4 mg/mL).

For `O=C(O)C(O)C(O)c1ccccc1` (stereo not given), the solubility (20 °C) was 494 mM (≈ 90 mg/mL).

With `COc1cc(Br)c2c(c1OC)C(=O)OC2` the solubility (25 °C) was 0.117 mM (≈ 0.032 mg/mL).

For `CCOC(=O)c1cccnc1`, the solubility (25 °C) was 370 mM (≈ 56 mg/mL).

In the case of `CC(=O)N[C@@H](Cc1c[nH]c2ccccc12)C(=O)O` (racemic), the solubility (21 °C) is reported as 4.87 mM (≈ 1.2 mg/mL).

With `CC1CCCC(=NO)C1=NO` (stereo not given) the solubility (25 °C) was 25.6 mM (≈ 4 mg/mL).

Work on `O=S(=O)(O)c1ccc(/N=N/c2c(O)ccc3ccccc23)c2ccccc12` yielded a solubility of 68.7 mM (≈ 26 mg/mL).

For `CCCCCCCS`, the solubility (20 °C) was 0.07 mM (≈ 0.00926 mg/mL).

In the case of `CCN1CC(=O)N=C1N`, the solubility (25 °C) is reported as 684 mM (≈ 87 mg/mL).

`CC(=O)NCCNC(C)=O` gave a solubility (25 °C) of 4740 mM (≈ 683 mg/mL).

`OCc1cccc(CO)c1` gave a solubility (25 °C) of 585 mM (≈ 80.8 mg/mL).

`CC(=O)Nc1ccc2c(c1)C(=O)OC2` showed a solubility (25 °C) of 2.51 mM (≈ 0.48 mg/mL).

`O=C(Cc1ccccc1)c1ccc(O)cc1` showed a solubility of 31.6 mM (≈ 6.7 mg/mL).

For `CC(C(=O)O)N(CCC#N)CCC#N` (stereo not given), the solubility (25 °C) was 666 mM (≈ 130 mg/mL).

Compound `Nc1cc([N+](=O)[O-])ccc1I` has a solubility (25 °C) of 0.0379 mM (≈ 0.01 mg/mL).

`NC(=O)NCC(=O)NCC(=O)O` gave a solubility (25 °C) of 126 mM (≈ 22.1 mg/mL).

Work on `CC[C@@H]1C(=O)O[C@H]1C` yielded a solubility (20 °C) of 216 mM (≈ 24.6 mg/mL).

Compound `CC(N)C(O)C(=O)O` (stereo not given) has a solubility (25 °C) of 443 mM (≈ 52.8 mg/mL).

Work on `c1ccc(CCNCc2ccccc2)cc1` yielded a solubility (24 °C) of 1.89 mM (≈ 0.4 mg/mL).

`CCNC(CC)C(=O)O` (stereo not given) gave a solubility of 381 mM (≈ 50 mg/mL).

Work on `CC1(C)C2CCC1(C)C(N)(C(=O)O)C2` (stereo not given) yielded a solubility (20 °C) of 25.3 mM (≈ 5 mg/mL).

Compound `Nc1cc([N+](=O)[O-])ccc1O` has a solubility (23 °C) of 6 mM (≈ 0.925 mg/mL).

For `Cc1nc2c(=O)[nH]c(=O)n(C)c2nc1C`, the solubility (20 °C) was 7.71 mM (≈ 1.59 mg/mL).

For `C=CCCN=C=S`, the solubility (20 °C) was 4.06 mM (≈ 0.46 mg/mL).

With `O=C(c1cc([N+](=O)[O-])cc([N+](=O)[O-])c1)N(O)c1ccccc1` the solubility was 0.231 mM (≈ 0.07 mg/mL).

In the case of `CCCOC(=O)c1c(C(=O)O)cccc1[N+](=O)[O-]`, the solubility (20 °C) is reported as 4.5 mM (≈ 1.14 mg/mL).

`CN(C)c1ncnc2nccnc12` gave a solubility (20 °C) of 95.1 mM (≈ 16.7 mg/mL).

Compound `O=C(O)c1c(O)ccc2ccccc12` has a solubility (25 °C) of 0.744 mM (≈ 0.14 mg/mL).

Compound `CCN(C(N)=O)c1ccccc1C` has a solubility (25 °C) of 617 mM (≈ 110 mg/mL).

`CNC(=O)N(C)C(=O)CC#N` showed a solubility (25 °C) of 1480 mM (≈ 230 mg/mL).

For `Cc1cccc(Cl)c1O`, the solubility (25 °C) was 168 mM (≈ 24 mg/mL).

Compound `NC[C@H](O)C(=O)O` has a solubility (20 °C) of 148 mM (≈ 15.5 mg/mL).

With `O=C(O)CC1NC(=O)NC1=O` (stereo not given) the solubility (25 °C) was 70.5 mM (≈ 11.1 mg/mL).

Work on `Cn1c(=O)[nH]n(-c2ccccc2)c1=O` yielded a solubility of 1.05 mM (≈ 0.2 mg/mL).

`CC=Cc1ccc(OCC(=O)O)c(OC)c1` showed a solubility of 26.1 mM (≈ 5.81 mg/mL).

With `CC1(C)CO1` the solubility (20 °C) was 804 mM (≈ 58 mg/mL).

`Nc1ncc2[nH]cnc2n1` gave a solubility (20 °C) of 61.7 mM (≈ 8.33 mg/mL).

Compound `CC(=O)N[C@@H](CC(C)C)C(=O)O` has a solubility (25 °C) of 46.8 mM (≈ 8.1 mg/mL).

Work on `CCCC(=O)Oc1ccc([N+](=O)[O-])cc1` yielded a solubility (25 °C) of 0.115 mM (≈ 0.024 mg/mL).

`CC(=O)C(=O)c1ccccc1` showed a solubility (20 °C) of 17.5 mM (≈ 2.6 mg/mL).

With `CCCC(C)C(O)CC` (stereo not given) the solubility (25 °C) was 10.9 mM (≈ 1.42 mg/mL).

Work on `CCOC(OCC)C(Cl)(Cl)Cl` yielded a solubility of 22.6 mM (≈ 5 mg/mL).

For `CC(=O)Nc1ccc(S(=O)(=O)Nc2ccccn2)cc1`, the solubility (20 °C) was 0.192 mM (≈ 0.056 mg/mL).

For `O=CC(O)C(O)C(O)[C@H](O)C(O)CO` (stereo in doubt), the solubility (20 °C) was 476 mM (≈ 100 mg/mL).

`COCC(=O)c1ccccc1` gave a solubility of 173 mM (≈ 26 mg/mL).

In the case of `CC(C)C(Br)C(=O)N[C@@H](C)C(=O)O` (mixture of isomers), the solubility is reported as 329 mM (≈ 83 mg/mL).

For `NC1=NC2=NC=NC2C(C(F)(F)F)=N1` (stereo not given), the solubility (20 °C) was 0.733 mM (≈ 0.149 mg/mL).

With `O=C(S)CCCCCCC(=O)S` the solubility (26 °C) was 5.82 mM (≈ 1.2 mg/mL).

`O=COCc1ccco1` showed a solubility (25 °C) of 104 mM (≈ 13.1 mg/mL).

For `CCn1cnc2c1c(=O)n(C)c(=O)n2C`, the solubility (30 °C) was 176 mM (≈ 36.7 mg/mL).

`CCC(O)CCC(C)C` (stereo not given) gave a solubility (25 °C) of 11.8 mM (≈ 1.54 mg/mL).

Compound `CC(=O)OCC(C)OC(C)=O` (stereo not given) has a solubility (25 °C) of 624 mM (≈ 100 mg/mL).

With `CCOC(C)CCO` (stereo not given) the solubility (20 °C) was 423 mM (≈ 50 mg/mL).

Work on `O=C(c1ccc(Cl)cc1Cl)N(O)c1ccccc1` yielded a solubility of 0.213 mM (≈ 0.06 mg/mL).

With `CCCC(C)(O)CCC` the solubility (25 °C) was 25.9 mM (≈ 3.37 mg/mL).

`CN1C(=O)C(N)C(=S)N(C)C1=O` (stereo not given) showed a solubility of 76.4 mM (≈ 14.3 mg/mL).

With `CN(C)c1ncc2nccnc2n1` the solubility (20 °C) was 2280 mM (≈ 400 mg/mL).

Compound `Cn1c(=O)ncc2[nH]c(=O)[nH]c21` has a solubility of 161 mM (≈ 26.7 mg/mL).

In the case of `O=NN1CCCC1=O`, the solubility (25 °C) is reported as 1130 mM (≈ 129 mg/mL).

Compound `C[Si](C)(C)CCN` has a solubility (25 °C) of 15.6 mM (≈ 1.83 mg/mL).

In the case of `Cn1c(=O)c2[nH]c(Cl)nc2n(C)c1=O`, the solubility (25 °C) is reported as 31.1 mM (≈ 6.67 mg/mL).

For `CC(C)C1OCCO1`, the solubility was 861 mM (≈ 100 mg/mL).

`CC(C)CC1OCCO1` showed a solubility of 427 mM (≈ 55.6 mg/mL).

In the case of `Oc1ncncc1Br`, the solubility is reported as 357 mM (≈ 62.5 mg/mL).

Compound `COC(=O)c1ccc(O)c(Cl)c1` has a solubility (30 °C) of 1.34 mM (≈ 0.25 mg/mL).

For `NC(=O)C(N)C(O)C(=O)O` (stereo not given), the solubility (20 °C) was 70.9 mM (≈ 10.5 mg/mL).

Work on `CC(=O)OCCCOC(C)=O` yielded a solubility of 624 mM (≈ 100 mg/mL).

`O=c1nc[nH]c2nc(-c3ccccc3)c(-c3ccccc3)nc12` showed a solubility (20 °C) of 0.666 mM (≈ 0.2 mg/mL).

Compound `CCCC(=O)OCCOCCOCCOC(=O)CCC` has a solubility of 27.6 mM (≈ 8 mg/mL).

In the case of `CCOC(=O)[C@H](C)NC(=O)CCl`, the solubility is reported as 345 mM (≈ 66.7 mg/mL).

For `CSc1ncccn1`, the solubility (25 °C) was 396 mM (≈ 50 mg/mL).

With `CCCCS(=O)(=O)C(S(=O)(=O)CCCC)S(=O)(=O)CCCC` the solubility (25 °C) was 1.06 mM (≈ 0.4 mg/mL).

For `CCCOP(=O)(OCC)OCCC`, the solubility (25 °C) was 105 mM (≈ 22 mg/mL).

Compound `Cc1ccc(S(=O)(=O)N(Cl)Cl)cc1` has a solubility (25 °C) of 0.342 mM (≈ 0.0821 mg/mL).

With `O=C(O)CCC(=O)c1cccc2ccccc12` the solubility (25 °C) was 0.329 mM (≈ 0.075 mg/mL).

`NC(=O)N/N=C/[C@H](O)[C@@H](O)[C@H](O)CO` showed a solubility (20 °C) of 743 mM (≈ 154 mg/mL).

`CC12CCC(CC1=O)C(C)(C)O2` (stereo not given) showed a solubility of 119 mM (≈ 20 mg/mL).

`NC(=O)NC(Cc1ccccc1)C(=O)O` (racemic) showed a solubility (20 °C) of 8.02 mM (≈ 1.67 mg/mL).

`N=C(NO)C(=N)NO` showed a solubility (25 °C) of 167 mM (≈ 19.7 mg/mL).
